Laboratory results from patent publication US20240216357A1 (SICHUAN HUIYU PHARMACEUTICAL CO., LTD., priority 2021, published 2024).
Counter-ions that a name gives are not always drawn. Like-named read-outs stand apart in the source and are kept apart here.

How the values were obtained:
LSD1 = LSD1 (Homo sapiens (Human), UniProt O60341); assay: LSD1 enzyme activity detection (HTRF); type: biochemical; conditions: read-out: Inhibition of enzymatic activity of LSD1 IC50
NCI-H1417 cells = assay: In vitro cell proliferation detection (CellTiter-Glo, 7 days); type: cell-based; conditions: Homo sapiens, 168 h; NCI-H1417 cells, 7 days, CellTiter-Glo; read-out: NCI-H1417 proliferation inhibition IC50

Compound | IC50 (LSD1; HTRF, H3K4me1 substrate) [nM] | IC50 (NCI-H1417 cells) [nM] | IC50 (LSD1) [nM]
COc1ccc(-c2sc(C(=O)N3C4CCC3CC(N)C4)cc2-c2ccc(C#N)c(F)c2)cc1O (centres unmarked) [Example 218, 4-(5-(3-amino-8-azabicyclo [3.2.1]octan-8-carbonyl)-2-(3-hydroxy-4-methoxy-phenyl)thiophen-3-yl)-2-fluorobenzonitrile] | 0.15 ± 0.03 | 0.88 | 
Cc1noc2cc(-c3oc(C(=O)N4C5CCC4CC(N)C5)cc3-c3ccc(C#N)c(F)c3)c(F)cc12 (centres unmarked) [Example 219, 4-(5-(3-amino-8-azabicyclo[3.2.1]octane-8-carbonyl)-2-(5-fluoro-3-methylbenzo[d]isoxazol-6-yl)furan-3-yl)-2-fluorobenzonitrile hydrochloride] |  | 95.3 | 7.3 ± 0.46
N#CCn1ncc2cc(F)c(-c3sc(C(=O)N4C5CCC4CC(N)C5)nc3-c3ccc(C#N)c(F)c3)cc21 (centres unmarked) [Example 221, 4-(2-(3-amino-8-azabicyclo[3.2.1]octan-8-carbonyl)-5-(1-(cyanomethyl)-5-fluoro-1H-indazol-6-yl)thiazol-4-yl)-2-fluorobenzonitrile hydrochloride] | 10 ± 3.2 | 29.8 | 
Cc1noc2cc(-c3oc(C(=O)N4C5CCC4CC(N)C5)nc3-c3ccc(C#N)c(F)c3)c(F)cc12 (centres unmarked) [Example 222, 4-(2-(3-amino-8-azabicyclo[3.2.1]octane-8-carbonyl)-5-(5-fluoro-3-methylbenzo[d]isoxazol-6-yl)oxazol-4-yl)-2-fluorobenzonitrile hydrochloride] | 14.4 | 41 | 
COc1ccc(-c2sc(N3CCC(N)CC3)nc2-c2ccc(C#N)c(F)c2)cc1O [Example 223, 4-(2-(4-aminopiperidin-1-yl)-5-(3-hydroxy-4-methoxyphenyl)thiazol-4-yl)-2-fluorobenzonitrile] | 0.1 ± 0.03 | 2.39 | 
COc1ccc(-c2nc(CN[C@@H]3C[C@H]3c3ccc(F)cc3)cc(C(=O)N3CCN(S(C)(=O)=O)CC3)n2)cc1F [Example 225] | 52.1 | 27.8 | 
CS(=O)(=O)N1CCN(C(=O)c2cc(CN[C@@H]3C[C@H]3c3ccc(F)cc3)nc(-c3ccc(-c4ccn[nH]4)cc3)n2)CC1 [Example 226] | 19.8 | 2.53 | 
O=C(c1cc(CN[C@@H]2C[C@H]2c2ccc(F)cc2)nc(-c2ccc(-n3cccn3)cc2)n1)N1CCOCC1 [Example 229] | 13 | 2.05 | 
COC(=O)C1CCN(C(=O)c2cc(CN[C@@H]3C[C@H]3c3ccc(F)cc3)nc(-c3ccc(-n4cccn4)cc3)n2)CC1 [Example 231] | 22.5 | 30.2 | 

Second part, led by results:

IC50 (LSD1; HTRF, H3K4me1 substrate) [nM] | IC50 (NCI-H1417 cells) [nM] | Compound | IC50 (LSD1) [nM]
548 | 209 | CS(=O)(=O)N1CCN(C(=O)c2cc(CN[C@@H]3C[C@H]3c3ccc(F)cc3)nc(-c3ccn4ccnc4c3)n2)CC1 [Example 232] | 
165 ± 8 | 31 ± 8 | O=C(O)C1CCN(C(=O)c2cc(CN[C@@H]3C[C@H]3c3ccc(F)cc3)nc(-c3ccc(-n4cccn4)cc3)n2)CC1 [Example 234] | 
285 | 98.3 | Cc1noc2cc(-c3nc(CN[C@@H]4C[C@H]4c4ccc(F)cc4)cc(C(=O)N4CCN(S(C)(=O)=O)CC4)n3)c(F)cc12 [Example 235] | 
423 ± 23 | 28.3 | O=C(NC1CCOCC1)c1cc(CN[C@@H]2C[C@H]2c2ccc(F)cc2)nc(-c2ccccc2)n1 [Example 237] | 
98 ± 1 | 5.31 | CS(=O)(=O)N1CCN(C(=O)c2cc(CN[C@@H]3C[C@H]3c3ccc(F)cc3)nc(-c3ccc(F)c(O)c3)n2)CC1 [Example 238, (2-(4-fluoro-3-hydroxy phenyl)-6-(((1R,2S)-2-(4-fluorophenyl)cyclo-propyl)amino)methyl) pyrimidin-4-yl)(4-(methyl-sulfonyl)piperazin-1-yl) methanone hydrochloride] | 
770 | 29.5 | O=C(c1cc(CN[C@@H]2C[C@H]2c2ccc(F)cc2)nc(-c2cccnc2)n1)N1CCOCC1 [Example 240] | 
26.9 | 12.6 | COc1ccc(-c2nc(CN[C@@H]3C[C@H]3c3ccc(F)cc3)cc(C(=O)N3CCOCC3)n2)cc1O [Example 241] | 
